Test results from PMC11956013, “Structure–Activity Relationships and Evaluation of 2-(Heteroaryl-cycloalkyl)-1H-indoles as Tauopathy Positron Emission Tomography Radiotracers” (Journal of Medicinal Chemistry, 2025).

Tests used:
CB2 (h) = CB2 (h) (Homo sapiens, UniProt P34972); assay: CB2 (h) (agonist radioligand), Eurofins assay 37
5-HT2C (h) = biological target: T1, 5-HT2C (h) (Homo sapiens, UniProt P28335); assay: Eurofins panel: 5-HT2C (h) (agonist radioligand); type: binding; details: 1.0E-05 M; 5-HT2C (h) (agonist radioligand)
T1 construct: purchased Eurofins (contract screening, CNS SafetyScreen panel)
T1 sequence (P28335 33-458): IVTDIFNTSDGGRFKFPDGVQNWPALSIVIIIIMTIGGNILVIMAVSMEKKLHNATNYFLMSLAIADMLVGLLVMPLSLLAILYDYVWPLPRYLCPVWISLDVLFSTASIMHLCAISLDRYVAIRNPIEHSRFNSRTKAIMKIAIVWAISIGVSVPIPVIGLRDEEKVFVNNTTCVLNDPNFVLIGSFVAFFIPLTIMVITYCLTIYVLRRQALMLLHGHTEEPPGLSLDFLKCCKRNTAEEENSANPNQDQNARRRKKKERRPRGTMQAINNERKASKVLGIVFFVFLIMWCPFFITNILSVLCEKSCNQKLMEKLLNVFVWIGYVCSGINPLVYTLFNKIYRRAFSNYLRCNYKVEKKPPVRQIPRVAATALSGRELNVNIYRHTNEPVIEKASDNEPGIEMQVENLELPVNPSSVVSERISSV

CYP2D6 = CYP2D6 (Homo sapiens, UniProt P10635); assay: in vitro; details: human liver microsomes, probe dextromethorphan
p38alpha kinase (h) = p38alpha kinase (h) (Homo sapiens, UniProt Q16539); details: compound concentration 1.0E-05 M
M5 (h) = biological target: T2, M5 (h) (Homo sapiens, UniProt P08912); assay: M5 (h) (antagonist radioligand), Eurofins assay 97
T2 sequence (P08912 1-532): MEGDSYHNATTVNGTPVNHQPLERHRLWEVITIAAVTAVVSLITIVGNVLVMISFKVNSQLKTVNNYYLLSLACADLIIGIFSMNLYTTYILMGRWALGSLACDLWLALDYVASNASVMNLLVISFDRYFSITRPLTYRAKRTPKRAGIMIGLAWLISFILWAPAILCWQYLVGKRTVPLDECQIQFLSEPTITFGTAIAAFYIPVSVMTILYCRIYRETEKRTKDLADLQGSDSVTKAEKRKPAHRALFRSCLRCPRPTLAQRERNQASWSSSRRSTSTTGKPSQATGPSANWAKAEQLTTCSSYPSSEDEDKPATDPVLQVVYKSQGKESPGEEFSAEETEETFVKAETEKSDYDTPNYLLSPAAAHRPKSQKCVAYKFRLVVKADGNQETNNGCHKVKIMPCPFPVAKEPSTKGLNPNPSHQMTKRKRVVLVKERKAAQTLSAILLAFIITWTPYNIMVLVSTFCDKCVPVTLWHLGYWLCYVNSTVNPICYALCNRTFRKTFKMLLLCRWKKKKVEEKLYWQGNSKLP

5-HT1B (h) = 5-HT1B (h) (Homo sapiens, UniProt P28222); assay: Eurofins panel: 5-HT1B (h) (antagonist radioligand); details: 1.0E-05 M
ETA (h) = ETA (h) (Homo sapiens, UniProt P25101); assay: biochemical
mu (MOP) (h) = mu (MOP) (h) (Homo sapiens, UniProt P35372); assay: Eurofins panel: mu (MOP) (h) (agonist radioligand); details: compound concentration 1.0E-05 M
[1] = biological target: N neuronal alpha4beta2 (h) (Homo sapiens, UniProt P17787+P43681); details: compound concentration 1.0E-05 M
delta (DOP) (h) = delta (DOP) (h) (Homo sapiens, UniProt P41143); assay: biochemical
5-HT3 (h) = 5-HT3 (h) (Homo sapiens, UniProt P46098); details: 1.0E-05 M; 5-HT3 (h) (antagonist radioligand)
CYP2C19 = CYP2C19 (Homo sapiens, UniProt P33261); assay: in vitro; details: human liver microsomes, probe omeprazole
[2] = biological target: T3, GABAB(B1b/B2) Human GABA B GPCR (Homo sapiens, UniProt Q9UBS5); assay: GABAB(B1b/B2) Human GABA B GPCR Mass Spectrometry Binding (Antagonist Ligand) Assay, Cerep, assay 4699
T3 construct: Eurofins (Cerep) assay 4699

A1 (h) = A1 (h) (Homo sapiens, UniProt P30542); details: 1.0E-05 M; A1 (h) (antagonist radioligand)
[3] = biological target: T4, human monoamine oxidase-B (MAO-B) (Homo sapiens, UniProt P27338); assay: biochemical
CYP1A2 = CYP1A2 (Homo sapiens, UniProt P05177); assay: in vitro; details: human liver microsomes, probe tacrine
GABA transaminase = GABA transaminase (Rattus norvegicus, UniProt P50554); assay: GABA transaminase, Eurofins assay 461; type: biochemical; details: Enzymatic activity; 1.0E-05 M
[4] = biological target: T4, human monoamine oxidase-B (MAO-B)
MT1 (ML1A) (h) = MT1 (ML1A) (h) (Homo sapiens, UniProt P48039); assay: MT1 (ML1A) (h) (agonist radioligand), Eurofins assay 1538
JNK1 (h) = JNK1 (h) (Homo sapiens, UniProt P45983); details: Enzymatic activity; 1.0E-05 M
[5] = biological target: GABAA1 (h) (alpha1,beta2,gamma2) (Homo sapiens, UniProt P14867+P47870); assay: GABAA1 (h) (alpha1,beta2,gamma2) (agonist radioligand), Eurofins assay 3051
CCK1 (CCKA) (h) = CCK1 (CCKA) (h) (Homo sapiens, UniProt P32238); assay: biochemical
CCK1 (CCKA) (h), sequence (P32238 whole entry): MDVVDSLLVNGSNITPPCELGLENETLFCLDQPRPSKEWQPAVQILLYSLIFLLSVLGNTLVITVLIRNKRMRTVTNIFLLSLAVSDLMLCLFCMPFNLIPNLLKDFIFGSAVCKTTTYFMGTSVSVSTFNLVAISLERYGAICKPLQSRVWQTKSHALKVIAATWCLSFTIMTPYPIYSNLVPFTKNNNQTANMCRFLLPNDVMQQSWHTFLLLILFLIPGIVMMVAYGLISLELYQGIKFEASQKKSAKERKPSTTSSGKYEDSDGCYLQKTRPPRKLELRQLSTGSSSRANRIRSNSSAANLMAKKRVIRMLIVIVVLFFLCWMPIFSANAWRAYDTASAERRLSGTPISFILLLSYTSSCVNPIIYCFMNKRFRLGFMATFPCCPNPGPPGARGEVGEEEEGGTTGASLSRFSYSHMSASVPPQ

T4 sequence (P27338 whole entry): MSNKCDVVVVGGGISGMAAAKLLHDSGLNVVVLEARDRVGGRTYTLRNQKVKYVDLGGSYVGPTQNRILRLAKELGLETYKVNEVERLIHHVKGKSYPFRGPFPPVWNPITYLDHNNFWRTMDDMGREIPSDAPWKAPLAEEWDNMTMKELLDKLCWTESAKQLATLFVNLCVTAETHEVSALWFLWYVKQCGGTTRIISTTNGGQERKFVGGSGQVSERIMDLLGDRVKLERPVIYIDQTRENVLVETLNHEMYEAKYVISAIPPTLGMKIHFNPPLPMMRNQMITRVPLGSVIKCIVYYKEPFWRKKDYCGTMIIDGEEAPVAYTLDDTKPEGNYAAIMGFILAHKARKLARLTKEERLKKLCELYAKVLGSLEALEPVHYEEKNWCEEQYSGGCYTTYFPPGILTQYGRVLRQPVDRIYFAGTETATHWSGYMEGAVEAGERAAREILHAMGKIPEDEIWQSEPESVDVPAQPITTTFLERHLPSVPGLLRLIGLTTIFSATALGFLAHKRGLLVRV
CYP2C19, sequence (P33261 whole entry): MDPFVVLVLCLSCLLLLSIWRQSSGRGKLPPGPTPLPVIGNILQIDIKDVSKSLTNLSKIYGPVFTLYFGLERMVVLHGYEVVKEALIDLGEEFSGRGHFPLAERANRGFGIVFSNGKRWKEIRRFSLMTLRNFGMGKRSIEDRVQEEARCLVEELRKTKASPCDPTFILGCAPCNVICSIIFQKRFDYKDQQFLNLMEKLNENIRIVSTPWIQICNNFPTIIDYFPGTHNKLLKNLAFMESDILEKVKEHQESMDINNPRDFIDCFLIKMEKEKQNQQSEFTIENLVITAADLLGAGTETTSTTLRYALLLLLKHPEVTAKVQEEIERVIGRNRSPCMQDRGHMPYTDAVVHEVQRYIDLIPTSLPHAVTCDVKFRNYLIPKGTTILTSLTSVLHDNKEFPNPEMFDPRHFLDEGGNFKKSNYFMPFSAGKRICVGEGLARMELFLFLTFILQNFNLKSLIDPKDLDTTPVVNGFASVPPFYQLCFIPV
CYP2D6, sequence (P10635 whole entry): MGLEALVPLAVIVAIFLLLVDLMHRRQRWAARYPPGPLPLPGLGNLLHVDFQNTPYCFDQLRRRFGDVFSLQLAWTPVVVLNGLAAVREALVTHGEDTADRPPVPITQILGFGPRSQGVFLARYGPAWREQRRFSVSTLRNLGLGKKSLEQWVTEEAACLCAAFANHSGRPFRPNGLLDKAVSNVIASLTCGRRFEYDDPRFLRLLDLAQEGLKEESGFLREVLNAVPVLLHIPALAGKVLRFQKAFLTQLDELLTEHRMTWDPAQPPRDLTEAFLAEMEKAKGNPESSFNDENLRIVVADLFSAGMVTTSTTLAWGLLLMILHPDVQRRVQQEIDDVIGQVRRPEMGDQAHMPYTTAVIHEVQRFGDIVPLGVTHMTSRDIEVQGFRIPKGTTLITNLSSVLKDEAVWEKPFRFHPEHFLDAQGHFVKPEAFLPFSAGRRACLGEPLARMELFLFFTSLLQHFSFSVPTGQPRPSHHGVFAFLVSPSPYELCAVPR
GABA transaminase, sequence (P50554 28-500): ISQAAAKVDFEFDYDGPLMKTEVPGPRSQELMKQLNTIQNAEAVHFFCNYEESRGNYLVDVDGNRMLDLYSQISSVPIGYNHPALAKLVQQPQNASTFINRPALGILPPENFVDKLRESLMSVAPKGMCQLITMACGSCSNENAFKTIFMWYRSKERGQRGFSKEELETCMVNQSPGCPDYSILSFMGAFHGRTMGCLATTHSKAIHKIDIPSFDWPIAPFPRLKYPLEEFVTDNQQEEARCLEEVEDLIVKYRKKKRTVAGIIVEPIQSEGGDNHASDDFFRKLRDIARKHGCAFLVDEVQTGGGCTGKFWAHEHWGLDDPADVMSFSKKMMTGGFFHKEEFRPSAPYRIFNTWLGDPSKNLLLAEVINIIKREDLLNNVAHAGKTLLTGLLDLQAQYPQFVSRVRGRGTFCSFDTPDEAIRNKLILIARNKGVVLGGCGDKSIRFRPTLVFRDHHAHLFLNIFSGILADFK
5-HT3 (h), sequence (P46098 24-478): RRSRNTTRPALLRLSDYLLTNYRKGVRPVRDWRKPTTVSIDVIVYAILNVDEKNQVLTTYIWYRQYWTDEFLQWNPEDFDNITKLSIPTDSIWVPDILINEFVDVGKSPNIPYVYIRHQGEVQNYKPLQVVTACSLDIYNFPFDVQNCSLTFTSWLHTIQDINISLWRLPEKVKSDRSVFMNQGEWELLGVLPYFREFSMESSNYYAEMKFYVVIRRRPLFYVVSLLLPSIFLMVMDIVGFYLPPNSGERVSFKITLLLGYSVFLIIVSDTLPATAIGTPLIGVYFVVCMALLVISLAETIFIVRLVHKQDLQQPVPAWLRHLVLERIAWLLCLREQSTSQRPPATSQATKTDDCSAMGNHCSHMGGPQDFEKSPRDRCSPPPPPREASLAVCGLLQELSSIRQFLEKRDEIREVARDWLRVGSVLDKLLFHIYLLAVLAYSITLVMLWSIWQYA
GABAA1 (h) (alpha1,beta2,gamma2), sequence (P18507 40-475): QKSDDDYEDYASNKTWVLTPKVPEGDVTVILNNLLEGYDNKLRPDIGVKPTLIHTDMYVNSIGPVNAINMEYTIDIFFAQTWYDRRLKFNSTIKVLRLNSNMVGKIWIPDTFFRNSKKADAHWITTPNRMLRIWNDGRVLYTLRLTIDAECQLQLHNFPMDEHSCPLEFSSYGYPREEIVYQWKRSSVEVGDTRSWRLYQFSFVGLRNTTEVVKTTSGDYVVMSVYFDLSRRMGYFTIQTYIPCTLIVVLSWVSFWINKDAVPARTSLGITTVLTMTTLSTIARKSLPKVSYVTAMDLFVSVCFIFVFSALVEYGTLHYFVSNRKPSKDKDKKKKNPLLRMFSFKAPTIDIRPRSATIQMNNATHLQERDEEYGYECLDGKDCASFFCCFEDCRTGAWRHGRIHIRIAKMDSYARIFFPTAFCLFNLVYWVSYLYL
GABAA1 (h) (alpha1,beta2,gamma2), sequence (P14867 28-456): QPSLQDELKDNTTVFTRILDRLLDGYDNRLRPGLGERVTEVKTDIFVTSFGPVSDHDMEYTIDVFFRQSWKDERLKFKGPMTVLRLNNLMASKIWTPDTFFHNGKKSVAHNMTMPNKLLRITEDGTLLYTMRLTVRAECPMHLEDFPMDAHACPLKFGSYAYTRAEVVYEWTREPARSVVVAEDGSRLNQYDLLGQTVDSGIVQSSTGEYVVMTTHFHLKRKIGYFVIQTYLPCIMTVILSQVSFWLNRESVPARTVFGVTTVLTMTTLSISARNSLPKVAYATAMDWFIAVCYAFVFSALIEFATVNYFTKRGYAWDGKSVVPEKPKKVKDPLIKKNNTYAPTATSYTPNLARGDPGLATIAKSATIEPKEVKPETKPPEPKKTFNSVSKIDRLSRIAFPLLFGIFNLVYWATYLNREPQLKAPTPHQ
GABAA1 (h) (alpha1,beta2,gamma2), sequence (P47870 25-512): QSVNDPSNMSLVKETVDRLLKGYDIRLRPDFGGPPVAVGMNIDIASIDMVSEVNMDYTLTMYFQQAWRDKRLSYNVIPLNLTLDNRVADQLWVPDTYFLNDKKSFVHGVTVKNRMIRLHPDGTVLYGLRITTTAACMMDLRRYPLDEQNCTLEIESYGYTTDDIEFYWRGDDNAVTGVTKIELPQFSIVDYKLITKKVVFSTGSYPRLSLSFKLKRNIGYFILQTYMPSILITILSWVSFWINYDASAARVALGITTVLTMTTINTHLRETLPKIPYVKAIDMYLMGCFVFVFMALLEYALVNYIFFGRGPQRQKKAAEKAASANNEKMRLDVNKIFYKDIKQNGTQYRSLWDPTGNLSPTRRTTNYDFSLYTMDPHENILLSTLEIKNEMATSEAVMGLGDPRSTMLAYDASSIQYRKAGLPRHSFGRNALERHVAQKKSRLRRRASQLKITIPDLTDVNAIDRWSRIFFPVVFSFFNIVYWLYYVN
p38alpha kinase (h), sequence (Q16539 whole entry): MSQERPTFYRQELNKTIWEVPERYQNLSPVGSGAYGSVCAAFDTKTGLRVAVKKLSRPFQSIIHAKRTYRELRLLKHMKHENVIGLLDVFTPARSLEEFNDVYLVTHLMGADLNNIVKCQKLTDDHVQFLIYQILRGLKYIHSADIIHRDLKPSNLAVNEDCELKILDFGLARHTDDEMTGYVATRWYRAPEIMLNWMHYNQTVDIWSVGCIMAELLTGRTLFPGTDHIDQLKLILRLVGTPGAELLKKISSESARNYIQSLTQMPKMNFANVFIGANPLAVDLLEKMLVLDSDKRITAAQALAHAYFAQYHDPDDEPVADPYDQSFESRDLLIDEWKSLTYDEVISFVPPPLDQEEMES
5-HT1B (h), sequence (P28222 whole entry): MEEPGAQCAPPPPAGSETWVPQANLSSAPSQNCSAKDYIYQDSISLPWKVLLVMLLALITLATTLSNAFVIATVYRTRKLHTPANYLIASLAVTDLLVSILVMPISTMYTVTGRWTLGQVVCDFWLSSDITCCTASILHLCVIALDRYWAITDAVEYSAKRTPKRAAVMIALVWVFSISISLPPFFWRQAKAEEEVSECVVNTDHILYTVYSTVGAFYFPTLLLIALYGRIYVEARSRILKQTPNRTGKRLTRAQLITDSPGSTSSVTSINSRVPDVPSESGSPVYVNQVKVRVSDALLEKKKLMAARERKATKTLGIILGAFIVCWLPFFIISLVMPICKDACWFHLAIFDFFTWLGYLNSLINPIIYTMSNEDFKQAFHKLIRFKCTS

Fc1nc(N2CCOCC2)ccc1-c1cc2ccccc2[nH]1 [Compound 75, 4-(6-Fluoro-5-(1H-indol-2-yl)pyridin-2-yl)morpholine]
inhibition at 10 µM (CB2 (h)): -17.9%
% Inhibition, Specific binding (5-HT2C (h)): 5.817%
inhibition at 10 µM (CYP2D6): 13.6%
% Inhibition, Enzymatic activity (p38alpha kinase (h)): 10.339%
inhibition at 10 µM (M5 (h)): 1.64%
% Inhibition, Specific binding (5-HT1B (h)): -1.91E+01%
inhibition at 10 µM (ETA (h)): 4.29%
% Inhibition, Specific binding (mu (MOP) (h)): -1.17E+00%
% Inhibition, Specific binding [1]: -8.72E+00%
inhibition at 10 µM (delta (DOP) (h)): -13.7%
% Inhibition, Specific binding (5-HT3 (h)): 0.4312%
inhibition at 10 µM (CYP2C19): -0.914%
inhibition at 10 µM [2]: 18.1%
% Inhibition, Specific binding (A1 (h)): -7.64E+00%
inhibition at 10 µM [3]: 61%
inhibition at 10 µM (CYP1A2): -10.4%
inhibition at 10 µM (GABA transaminase): -0.726%
inhibition at human MAO-B (vs deprenyl) [4]: 61%
inhibition at 10 µM (MT1 (ML1A) (h)): 13%
% Inhibition (JNK1 (h)): -3.56E-01%
inhibition at 10 µM [5]: 7.7%
inhibition at 10 µM (CCK1 (CCKA) (h)): -78.7%
